Reference: patent US20240158446A1, “CYCLIC COMPOUND HAVING SELECTIVE INHIBITORY ACTION ON KRAS OVER HRAS AND NRAS” (CHUGAI SEIYAKU KABUSHIKI KAISHA, priority 2021, published 2024)
Read-outs that look alike come from different tables or passages of the source. Where a SMILES comes first, the peptide text is derived from it. Bridges are numbered along the chain shown (N, C = ends). [ ]: non-standard residue; d: D form. The star is where a group is joined. hPhe(3-Cl-4-CF3) = N[C@@H](CCc1ccc(C(F)(F)F)c(Cl)c1)C(=O)O; NPrPhe(4-CF3) = CCCN[C@@H](Cc1ccc(C(F)(F)F)cc1)C(=O)O; NMeGly(cPent) = CN[C@H](C(=O)O)C1CCCC1; NMeD = CN[C@@H](CC(=O)O)C(=O)O; NMeL = CN[C@@H](CC(C)C)C(=O)O; Morpholide = C1CN(*)CCO1; Ac5c = NC1(C(=O)O)CCCC1; Sar = CNCC(=O)O

Legend:
[1] = biological target: GDP-bound HRAS wild-type protein (Homo sapiens, UniProt P01112); assay: Binding to HRAS by surface plasmon resonance (SPR), Single Cycle Kinetics; details: for HRAS/KRAS (KD ratio): ratio of KD for GDP-bound HRAS wild-type protein to KD for KRAS; for HRAS/KRAS (KD ratio) / HRAS/KRAS (ratio of KD value for HRAS to KD value for KRAS): SPR; for HRAS/KRAS (ratio of KD value for HRAS to KD value for KRAS): GDP-bound HRAS wild-type protein vs GDP-bound KRAS wild-type protein
Chain of GDP-bound HRAS wild-type protein (P01112 whole entry): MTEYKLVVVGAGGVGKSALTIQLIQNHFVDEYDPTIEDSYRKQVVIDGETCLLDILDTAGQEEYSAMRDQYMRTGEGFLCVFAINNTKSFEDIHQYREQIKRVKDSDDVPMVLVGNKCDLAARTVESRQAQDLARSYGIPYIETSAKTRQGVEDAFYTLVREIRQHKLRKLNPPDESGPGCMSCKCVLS

[2] = system: human lung cancer strain NCI-H441; assay: cells; details: NCI-H441, 96 h, read-out: NCI-H441 IC50 (nM), NCI-H441 cell proliferation, 4 days, CellTiter-Glo;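 further: cell proliferation inhibition after four days measured by CellTiter-Glo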
[3] = biological target: GDP-bound NRAS wild-type protein (Homo sapiens, UniProt P01111); assay: Binding to NRAS by surface plasmon resonance (SPR), Single Cycle Kinetics; details: for NRAS/KRAS (KD ratio): ratio of KD for GDP-bound NRAS wild-type protein to KD for KRAS; for NRAS/KRAS (KD ratio) / NRAS/KRAS (ratio of KD value for NRAS to KD value for KRAS): SPR; for NRAS/KRAS (ratio of KD value for NRAS to KD value for KRAS): GDP-bound NRAS wild-type protein vs GDP-bound KRAS wild-type protein
Chain of GDP-bound NRAS wild-type protein (P01111 whole entry): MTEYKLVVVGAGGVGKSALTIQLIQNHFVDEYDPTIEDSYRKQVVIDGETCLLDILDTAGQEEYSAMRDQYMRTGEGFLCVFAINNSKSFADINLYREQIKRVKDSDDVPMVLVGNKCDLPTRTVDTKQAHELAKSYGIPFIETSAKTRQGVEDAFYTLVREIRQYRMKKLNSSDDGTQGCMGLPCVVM

[4] = system: human lung cancer strain NCI-H441;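 further: cell proliferation inhibition after four days measured by CellTiter-Glo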
[5] = biological target: GDP-bound KRAS wild-type protein (Homo sapiens, UniProt P01116); assay: Binding to KRAS by surface plasmon resonance (SPR), Single Cycle Kinetics; details: GDP-bound KRAS wild-type protein, read-out: KRAS KD
Chain of GDP-bound KRAS wild-type protein (P01116 whole entry): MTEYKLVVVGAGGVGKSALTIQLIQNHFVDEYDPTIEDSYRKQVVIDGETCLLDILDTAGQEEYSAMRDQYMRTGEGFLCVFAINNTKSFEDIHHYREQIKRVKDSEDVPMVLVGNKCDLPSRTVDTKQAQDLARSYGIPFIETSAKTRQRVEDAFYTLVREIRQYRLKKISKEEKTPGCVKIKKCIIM

Structure (SMILES): CCO[C@@H]1C[C@H]2C(=O)NC3(CCC3)C(=O)N(C)[C@@H](C3CCCC3)C(=O)N(C)[C@H](C(=O)N(C)CC)CC(=O)N(C)[C@@H](CC3CCC3)C(=O)N[C@@H]([C@@H](C)CC)C(=O)N(C)CC(=O)N(C)[C@H]3C/C=C\CCN(C3=O)[C@@H](Cc3ccc(C(F)(F)F)cc3)C(=O)N(C)CC(=O)N[C@@H](CCc3cc(F)c(C(F)(F)F)c(F)c3)C(=O)N2C1 [PP1667]
- HRAS/KRAS (KD ratio) [1]: A (a compound having 10 or more and less than 20 is denoted as A)
- IC50 [2]: 2 nM
- NRAS/KRAS (KD ratio) [3]: A (a compound having 10 or more and less than 20 is denoted as A)

Structure (SMILES): CCC[C@H]1C(=O)N[C@@H]([C@@H](C)CC)C(=O)N(C)CC(=O)N(C)[C@H]2C/C=C\CCN(C2=O)[C@@H](Cc2ccc(C)cc2)C(=O)N(C)CC(=O)N[C@@H](CCc2cc(F)c(C(F)(F)F)c(F)c2)C(=O)N2C[C@H](C)C[C@H]2C(=O)NC2(CCC2)C(=O)N(C)[C@@H](C2CCCC2)C(=O)N(C)[C@H](C(=O)N(C)CC)CC(=O)N1C [PP1862]
- HRAS/KRAS (KD ratio) [1]: A (a compound having 10 or more and less than 20 is denoted as A)
- IC50 [2]: 22.2 nM
- NRAS/KRAS (KD ratio) [3]: A (a compound having 10 or more and less than 20 is denoted as A)

Structure (SMILES): CC[C@H](C)[C@@H]1NC(=O)[C@H](CC2CC2)N(C)C(=O)C[C@@H](C(=O)N(C)CC)N(C)C(=O)[C@H](C2CCCC2)N(C)C(=O)C2(CCC2)NC(=O)[C@@H]2C[C@H](C)CN2C(=O)[C@H](CCc2ccc(C(F)(F)F)c(OC)c2)NC(=O)CN(C)C(=O)[C@H](Cc2ccc(C)cc2)N2CC/C=C\C[C@@H](C2=O)N(C)C(=O)CN(C)C1=O [PP1897]
- IC50 [2]: 22.6 nM

Structure (SMILES): CCC[C@H]1C(=O)N[C@@H]([C@@H](C)CC)C(=O)N(C)CC(=O)N(C)[C@H]2C/C=C\CCN(C2=O)[C@@H](Cc2ccc(C)cc2)C(=O)N(C)CC(=O)N[C@@H](CCc2ccc(C(F)(F)F)c(Cl)c2)C(=O)N2C[C@H](C)C[C@H]2C(=O)NC2(CCC2)C(=O)N(C)[C@@H](C2CCCC2)C(=O)N(C)[C@H](C(=O)N(C)CC)CC(=O)N1C [PP1850]
- IC50 [2]: 49.1 nM

Structure (SMILES): CC[C@H](C)[C@@H]1NC(=O)[C@H](CC)N(C)C(=O)C[C@@H](C(=O)N(C)CC)N(C)C(=O)[C@H](C2CCCC2)N(C)C(=O)C2(CC(C)(C)C2)NC(=O)[C@@H]2C[C@@H](C)CN2C(=O)[C@H](CCc2cc(F)c(C(F)(F)F)c(F)c2)NC(=O)CN(C)C(=O)[C@H](Cc2ccc(C)cc2)N2CC/C=C\C[C@@H](C2=O)N(C)C(=O)CN(C)C1=O [PP1884]
- IC50 [2]: 17.3 nM

Structure (SMILES): CC[C@H](C)[C@@H]1NC(=O)[C@H](CC(F)F)N(C)C(=O)C[C@@H](C(=O)N(C)C)N(C)C(=O)[C@H](C2CCCC2)N(C)C(=O)C2(CC(C)(C)C2)NC(=O)[C@@H]2C[C@@H](C)CN2C(=O)[C@H](CCc2ccc(C(F)(F)F)c(OC)c2)NC(=O)CN(C)C(=O)[C@H](Cc2ccc(C)cc2)N2CC/C=C\C[C@@H](C2=O)N(C)C(=O)CN(C)C1=O [PP1877]
- IC50 [2]: 18.4 nM

Structure (SMILES): CCO[C@@H]1C[C@H]2C(=O)NC3(CCC3)C(=O)N(C)[C@@H](C3CCCC3)C(=O)N(C)[C@H](C(=O)N(C)CC)CC(=O)N(C)[C@@H](C(C)C)C(=O)N[C@@H]([C@@H](C)CC)C(=O)N(C)CC(=O)N(C)[C@H]3C/C=C\CCN(C3=O)[C@@H](Cc3ccc(C(F)(F)F)cc3)C(=O)N(C)CC(=O)N[C@@H](CCc3ccc(C(F)(F)F)c(OC)c3)C(=O)N2C1 [PP2019]
- IC50 [2]: 4.5 nM

Structure (SMILES): CCCN(C)C(=O)[C@@H]1CC(=O)N(C)[C@@H](COCC)C(=O)N[C@@H]([C@@H](C)CC)C(=O)N(C)CC(=O)N(C)[C@H]2C/C=C\CCN(C2=O)[C@@H](Cc2ccc(C(F)(F)F)cc2)C(=O)N(C)CC(=O)N[C@@H](CCc2cc(F)c(C(F)(F)F)c(F)c2)C(=O)N2C[C@@H](C)C[C@H]2C(=O)NC2(CCC2)C(=O)N(C)[C@@H](C2CCCC2)C(=O)N1C [PP2002]
- IC50 [2]: 15.7 nM

Structure (SMILES): CCCN1C(=O)CN(C)C(=O)CN(C)C(=O)[C@H]([C@@H](C)CC)NC(=O)[C@H](CC(C)C)N(C)C(=O)C[C@@H](C(=O)N2CCOCC2)N(C)C(=O)[C@H](C2CCCC2)N(C)C(=O)C2(CCCC2)NC(=O)[C@H](C)NC(=O)[C@H](CCc2ccc(C(F)(F)F)c(Cl)c2)NC(=O)CN(C)C(=O)[C@@H]1Cc1ccc(C(F)(F)F)cc1 [PP1914] ([NMeL]I[Sar][Sar][NPrPhe(4-CF3)][Sar][hPhe(3-Cl-4-CF3)]A[Ac5c][NMeGly(cPent)][NMeD]-Morpholide; lactam N-11)
- IC50 [2]: 39.7 nM

Structure (SMILES): CC[C@H](C)[C@@H]1NC(=O)[C@H](CC)N(C)C(=O)C[C@@H](C(=O)N(C)CC)N(C)C(=O)[C@H](C2CCCC2)N(C)C(=O)C2(CCC2)NC(=O)[C@@H]2C[C@H](C)CN2C(=O)[C@H](CCc2ccc(C(F)(F)F)c(OC)c2)NC(=O)CN(C)C(=O)[C@H](Cc2ccc(C)cc2)N2CC/C=C\C[C@@H](C2=O)N(C)C(=O)CN(C)C1=O [PP1853]
- IC50 [2]: 30.4 nM

Structure (SMILES): CCCN(C)C(=O)[C@@H]1CC(=O)N(C)[C@@H](CCOC)C(=O)N[C@@H]([C@@H](C)CC)C(=O)N(C)CC(=O)N(C)[C@H]2C/C=C\CCN(C2=O)[C@@H](Cc2ccc(C(F)(F)F)cc2)C(=O)N(C)CC(=O)N[C@@H](CCc2cc(F)c(C(F)(F)F)c(F)c2)C(=O)N2C[C@H](OCC)C[C@H]2C(=O)NC2(CC(C)(C)C2)C(=O)N(C)[C@@H](C2CCCC2)C(=O)N1C [PP2033]
- IC50 [2]: 11.8 nM

Structure (SMILES): CCCOC[C@H]1C(=O)N[C@@H]([C@@H](C)CC)C(=O)N(C)CC(=O)N(C)[C@H]2C/C=C\CCN(C2=O)[C@@H](CC2CCC(F)(F)CC2)C(=O)N(C)CC(=O)N[C@@H](CCc2cc(F)c(C(F)(F)F)c(F)c2)C(=O)N2C[C@H](OCC)C[C@H]2C(=O)NC2(CC(C)(C)C2)C(=O)N(C)[C@@H](C(CC)CC)C(=O)N(C)[C@H](C(=O)N(C)C)CC(=O)N1C [PP2472]
- HRAS/KRAS (ratio of KD value for HRAS to KD value for KRAS) [1]: A (a compound having 10 or more and less than 20 is denoted as A)
- IC50 [4]: 42.3 nM
- NRAS/KRAS (ratio of KD value for NRAS to KD value for KRAS) [3]: A (a compound having 10 or more and less than 20 is denoted as A)
- Kd ([5]; SPR, Single Cycle Kinetics): 0.58 nM

Structure (SMILES): CCOC[C@H]1C(=O)N[C@@H]([C@@H](C)CC)C(=O)N(C)CC(=O)N(C)[C@H]2C/C=C\CCN(C2=O)[C@@H](CC2CCCCC2)C(=O)N(C)CC(=O)N[C@@H](CCc2ccc(C(F)(F)F)c(OC)c2)C(=O)N2C[C@H](OCC)C[C@H]2C(=O)NC2(CC(C)(C)C2)C(=O)N(C)[C@@H](C(CC)CC)C(=O)N(C)[C@H](C(=O)N(C)C)CC(=O)N1C [PP2470]
- HRAS/KRAS (ratio of KD value for HRAS to KD value for KRAS) [1]: A (a compound having 10 or more and less than 20 is denoted as A)
- IC50 [4]: 118 nM
- NRAS/KRAS (ratio of KD value for NRAS to KD value for KRAS) [3]: A (a compound having 10 or more and less than 20 is denoted as A)
- Kd ([5]; SPR, Single Cycle Kinetics): 1.8 nM

Structure (SMILES): CCC[C@H]1C(=O)N[C@@H]([C@@H](C)CC)C(=O)N(C)CC(=O)N(C)[C@H]2C/C=C\CCN(C2=O)[C@@H](CC2CCC(F)(F)CC2)C(=O)N(C)CC(=O)N[C@@H](CCc2cc(F)c(C(F)(F)F)c(F)c2)C(=O)N2C[C@H](OCC)C[C@H]2C(=O)NC2(CC(C)(C)C2)C(=O)N(C)[C@@H](C(CC)CC)C(=O)N(C)[C@H](C(=O)N(C)C)CC(=O)N1C [PP2489]
- HRAS/KRAS (ratio of KD value for HRAS to KD value for KRAS) [1]: A (a compound having 10 or more and less than 20 is denoted as A)
- IC50 [4]: 30.5 nM
- NRAS/KRAS (ratio of KD value for NRAS to KD value for KRAS) [3]: A (a compound having 10 or more and less than 20 is denoted as A)
- Kd ([5]; SPR, Single Cycle Kinetics): 0.55 nM

Structure (SMILES): CCO[C@@H]1C[C@H]2C(=O)NC3(CCC3)C(=O)N(C)[C@@H](C(CC)CC)C(=O)N(C)[C@H](C(=O)N3CCCC3)CC(=O)N(C)[C@@H](COC)C(=O)N[C@@H]([C@@H](C)CC)C(=O)N(C)CC(=O)N(C)[C@H]3C/C=C\CCN(C3=O)[C@@H](CC3CCCCC3)C(=O)N(C)CC(=O)N[C@@H](CCc3cc(F)c(C(F)(F)F)c(F)c3)C(=O)N2C1 [PP1438]
- HRAS/KRAS (ratio of KD value for HRAS to KD value for KRAS) ([1]; KD ratio class): A (a compound having 10 or more and less than 20 is denoted as A)
- IC50 [4]: 89.4 nM
- NRAS/KRAS (ratio of KD value for NRAS to KD value for KRAS) ([3]; KD ratio class): AA (a compound having 20 or more is denoted as AA)
- Kd ([5]; SPR, Single Cycle Kinetics, 1:1 binding model): 0.55 nM

Structure (SMILES): CCO[C@@H]1C[C@H]2C(=O)NC3(CC(C)(C)C3)C(=O)N(C)[C@@H](C3CCCC3)C(=O)N(C)[C@H](C(=O)N3CCCCC3)CC(=O)N(C)[C@@H](COC)C(=O)N[C@@H]([C@@H](C)CC)C(=O)N(C3CC3)CC(=O)N(C)[C@H]3C/C=C\CCN(C3=O)[C@@H](Cc3ccc(C(F)(F)F)cc3)C(=O)N(C)CC(=O)N[C@@H](CCc3cc(F)c(C(F)(F)F)c(F)c3)C(=O)N2C1 [PP2666]
- HRAS/KRAS (ratio of KD value with respect to GDP-bound HRAS wild-type protein to KD value with respect to KRAS) ([1]; SPR KD ratio HRAS/KRAS, class symbols): AA (a compound having 20 or more is denoted as AA)
- IC50 [4]: 28.6 nM
- NRAS/KRAS (ratio of KD value with respect to GDP-bound NRAS wild-type protein to KD value with respect to KRAS) ([3]; SPR KD ratio NRAS/KRAS, class symbols): AA (a compound having 20 or more is denoted as AA)
- Kd ([5]; SPR Single Cycle Kinetics, 1:1 binding model): 0.72 nM
